These antisense oligonucleotides have a phosphorothioate backbone; sugars and methylation of C are not fully specified.
These sequences were tested against E2F1. Details: ASO.
Note: test concentration or dose not given here.

Row | Sequence | remaining target (mRNA or protein) (fraction of control)
1 | AACCCCACACCCCTCCTCCC | 0.86
2 | AACCTTTAAGACAGAAGTGC | 0.74
3 | AAGCCCTGTCAGAAATCCAG | 0.58
4 | AAGCCTCCCCACCTGGCCTG | 0.28
5 | AAGTCCCGGCCACGGAATTC | 0.87
6 | AAGTGGTAGTCGAGGGCCTC | 0.77
7 | ACACACACATGCTCACACAC | 0.56
8 | ACACCACACAGACTCCTTCC | 0.6
9 | ACCTACGGTCTCCTCAGGGC | 0.21
10 | ACCTCGGCAGCCCAGTTCAG | ≥ 1
11 | AGAAGTCCTCCCGCACATGC | 0.51
12 | AGGAAGCGCTTGGTGGTCAG | 0.72
13 | AGGGACCCCTGCCCTTGCTC | 0.23
14 | AGGTCTCTGATGCCCTCGCC | 0.53
15 | ATGAGCTGGATGCCCTCAAG | 0.56
16 | ATGTCATAGATGCGCCGCTT | 0.77
17 | CACAGGAAAACATCGATCGG | 0.9
18 | CACCCAGGCCTCAGTTCCTT | 0.92

Row | Sequence | remaining target (mRNA or protein) (fraction of control)
19 | CACCGTCCTACACGCCCAGC | 0.44
20 | CACCTTTTCCTGGATGGCGG | 0.47
21 | CAGCTGCTGCTCGCTCTCCT | 0.63
22 | CAGGCGGCGGCGGCGGCGCG | 0.82
23 | CCACTCACCTCTCCCATCTC | 0.72
24 | CCCATGGCTGTCAGTCAGTC | ≥ 1
25 | CCGCTGCCTGCAAAGTCCCG | 0.92
26 | CCTCGGCGAGGGCTCGATCC | 0.8
27 | CGAGCAGGGCCTCCAGCGCC | 0.9
28 | CGATCGGGCCTTGTTTGCTC | 0.72
29 | CGCAGCTGCGTAGTACAGAT | ≥ 1
30 | CGCGGCGGAGATGATGACGA | ≥ 1
31 | CGGCGGGCGGCCGAGCGCGG | 0.83
32 | CTCAGAAGTGACCTCCTGGG | 0.73
33 | CTCCCTCACTTTCCCAATAA | 0.71
34 | CTGCAATGCTACGAAGGTCC | 0.26
35 | CTTCATTCCCCGGTACATGC | 0.72

The sequences below were run against AKT3. Details: ASO.

Row | Sequence | remaining target (mRNA or protein) (fraction of control)
36 | ATATATTCTCCCCTCTTC | ≥ 1
37 | ATCAAGAGCCCTGAAAGC | 0.29
38 | ATTATCAATTTGTGAAGT | ≥ 1
39 | ATTCTCTCCTCTTCTTGC | ≥ 1
40 | ATTCTTCATCAAAATATC | ≥ 1
41 | ATTTGGATCCTTTATCAA | ≥ 1
42 | CAACCCCTAGGCCCCACC | 0.16
43 | CATCTTGAGGTTTCTCTT | ≥ 1
44 | CCATCTGTCTTCAAAAGG | ≥ 1
45 | CCCACACATCATTTCATA | 0.25
46 | CTACATGAAATGTTCTCT | ≥ 1
47 | CTAGGCCCCACCAGTCTA | 0.17
48 | CTATGAATGAGCCATCTG | 0.99
49 | CTCCACCAAGGCGTTTAT | 0.12
50 | CTCTTCTAAACCCAACCT | 0.79
51 | CTCTTTATATCCTATGAA | ≥ 1
52 | CTGAAGAGAGTGTTCGAG | ≥ 1
53 | CTGCTCGGCCATAGTCAT | 0.19
54 | CTGTTTTCATTAACTGGC | ≥ 1
55 | CTTTTGCGTCATCTGGTC | ≥ 1
56 | GAGACATCTGATTATAAA | ≥ 1
57 | GAGGAAATTTAATGTCTT | ≥ 1

Row | Sequence | remaining target (mRNA or protein) (fraction of control)
58 | GATCCTTTATCAAGAGCC | 0.4
59 | GATTATAAATGTGTTTGG | ≥ 1
60 | GCCAGTTTACTCCAGAGA | 0.44
61 | GCCCTGAAAGCAATGATT | 0.34
62 | GCCTCTGCAGTCTGTCTG | ≥ 1
63 | GCGTCATCTGGTCCTCCA | 0.26
64 | GCGTTTATTTGGATCCTT | ≥ 1
65 | GGAAGTATCTTGGCCTCC | ≥ 1
66 | GGAGTATCTACATGAAAT | ≥ 1
67 | GGTTTAAGAGGAGGTACA | ≥ 1
68 | GTAATAGTCTGAGCTGTA | 0.88
69 | GTAGTCCACTGGAGACAT | ≥ 1
70 | GTCCTGGTTGTAGAAAGG | 0.58
71 | GTCTCAGATGTTACTTGA | 0.71
72 | GTCTGCTACAGCCTGGAT | 0.92
73 | GTTGTAGAGGCATCCATC | ≥ 1
74 | TAATTTCTTTTGCGTCAT | ≥ 1
75 | TACTCCAGAGAAGAAACT | 0.85
76 | TAGTATCTGTCTCAGATG | 0.7
77 | TCATACATGACAACCCCT | 0.13
78 | TCATTAACTGGCATTTTG | ≥ 1
79 | TCATTTCATACATGACAA | ≥ 1

Row | Sequence | remaining target (mRNA or protein) (fraction of control)
80 | TCCCCTCTTCTGAACCCA | 0.55
81 | TCTATAACAGTAGTCCAC | ≥ 1
82 | TCTCATGGTCCTGGTTGT | 0.57
83 | TCTGGTCCTCCACCAAGG | 0.26
84 | TCTTCCTCTCCTATATTA | ≥ 1
85 | TCTTCTTGCCTCTGCAGT | ≥ 1
86 | TGTAGAAAGGTAACCTCC | 0.82
87 | TGTCCATTCTTCCCTTTC | ≥ 1
88 | TGTCTCATAATTTCTTTT | ≥ 1
89 | TGTTCGAGGAAATTTAAT | ≥ 1
90 | TGTTCTCTCTATAACAGT | 0.94
91 | TTCCATTAATATTAATTC | ≥ 1
92 | TTCCCTTTCCTCTGGAGT | 0.65
93 | TTGGACTACAATTCATTC | 0.72
94 | TTGGCTTTGGTCGTTCTG | ≥ 1
95 | TTGGTCGTTCTGTTTTCA | ≥ 1
96 | TTTCCTCTGGAGTATCTA | ≥ 1
97 | TTTGCATCTGAAGAGAGT | 0.77
98 | TTTGCCACTGAAAAGTTG | ≥ 1
99 | TTTGTGAAGTTGGACTAC | ≥ 1
